The values below come from patent US6531459B1, “Vitamin D derivatives with phosphorus atoms in the side chains” (Schering Aktiengesellschaft, priority 1997, dated 2003).

This assay has as its target T1, vitamin D receptor (Sus scrofa, UniProt A3RGC1).
T1 construct: Receptor-containing protein extract is incubated in a test tube with ^3H-calcitriol; from tissue; host or cells: intestines of juvenile pigs (protein extract)
T1 sequence (A3RGC1 1-427): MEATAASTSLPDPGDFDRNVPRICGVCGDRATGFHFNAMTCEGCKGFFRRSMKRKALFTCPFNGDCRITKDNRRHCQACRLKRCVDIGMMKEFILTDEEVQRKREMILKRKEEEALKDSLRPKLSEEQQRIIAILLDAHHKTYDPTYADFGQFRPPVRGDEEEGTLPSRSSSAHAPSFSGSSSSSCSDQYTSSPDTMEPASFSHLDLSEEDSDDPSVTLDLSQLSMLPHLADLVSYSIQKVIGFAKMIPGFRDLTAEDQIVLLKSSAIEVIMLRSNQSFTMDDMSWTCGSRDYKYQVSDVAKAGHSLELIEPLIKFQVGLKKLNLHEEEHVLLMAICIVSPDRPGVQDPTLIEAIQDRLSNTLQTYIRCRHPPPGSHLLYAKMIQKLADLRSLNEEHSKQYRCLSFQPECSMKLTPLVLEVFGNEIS
In words: calcitriol-receptor test (competition with 3H-calcitriol). In kind it is binding. As to conditions: concentration of test substance / concentration of calcitriol at 50% competition; pig intestine protein extract, 3H-calcitriol 5×10^−10 mol/l. As for the experimental part:
It is carried out using a protein extract from the intestines of juvenile pigs. […] Then, the samples are centrifuged at 10,000 g for 5 minutes at 4° C. The supernatant is decanted and measured in a β-counter after 1 hour of equilibration in Picofluor 15™.
It is defined as a quotient of the concentrations of the respective test substance and the reference substance, which are necessary for 50% competition:
KF=Concentration of test substance at 50% competition/Concentration of reference substance at 50% competition
As to `C=C1C(=CC=C2CCCC3(C)C2CCC3C(C)C=CC(=O)C(C)(C)P(=O)(OCC)OCC)CC(O)CC1O` [Compound 53, (5Z,7E,22E)-(1S,3R)-(1,3-Dihydroxy-24-oxo-9,10-secocholesta-5,7,10(19),22-tetraen-25-yl)phosphonic acid diethyl ester], the “KF (competition factor)” value turned out to be 12.

For `C=C1/C(=C\C=C2/CCC[C@]3(C)[C@@H]([C@H](C)/C=C/C(=O)CP(=O)(OC(C)C)OC(C)C)CC[C@@H]23)C[C@@H](O)C[C@@H]1O` [Compound 13, (5Z,7E,22E)-(1S,3R)-(1,3-Dihydroxy-24-oxo-24a-homo-9,10-secochola-5,7,10(19),22-tetraen-24a-yl)phosphonic acid bis(1-methylethyl)ester], the “KF (competition factor)” value turned out to be 6.

For the molecule `C=C1/C(=C\C=C2/CCC[C@]3(C)[C@@H]([C@H](C)/C=C/C(=O)CP(=O)(OC)OC)CC[C@@H]23)C[C@@H](O)C[C@@H]1O` [Compound 5, (5Z,7E,22E)-(1S,3R)-(1,3-Dihydroxy-24-oxo-24a-homo-9,10-secochola-5,7,10(19),22-tetraen-24a-yl)phosphonic acid dimethyl ester], the “KF (competition factor)” value amounted to 10.

Turning to `C=C1C(=CC=C2CCCC3(C)C2CCC3C(C)C=CC(O)P(=O)(OC(C)C)OC(C)C)CC(O)CC1O` [Compound 65b, (5Z,7E,22E)-(1S,3R,24R)-(1,3,24-trihydroxy-9,10-secochola-5,7,10(19),22-tetraen-24-yl)phosphonic acid-bis(1-methylethyl)ester], the “KF (competition factor)” value is recorded as 10.

In the case of `C=C1/C(=C\C=C2/CCC[C@]3(C)[C@@H]([C@H](C)/C=C/C(CP(=O)(OCC)OCC)P(=O)(OCC)OCC)CC[C@@H]23)C[C@@H](O)C[C@@H]1O` (stereo partly drawn) [Compound 29, (5Z,7E,22E)-(1S,3R,24ξ)-(1,3-Dihydroxy-24a-homo-9,10-secochola-5,7,10(19),22-tetraene-24,24a-diyl)bis[phosphonic acid diethyl ester]], the “KF (competition factor)” value is 10.

For `C=C1/C(=C\C=C2/CCC[C@]3(C)[C@@H]([C@H](C)/C=C/C(=O)C(CC)(CC)P(=O)(OCC)OCC)CC[C@@H]23)C[C@@H](O)C[C@@H]1O` [Compound 57, (5Z,7E,22E)-(1S,3R)-(1,3-Dihydroxy-26,27-dimethyl-24-oxo-9,10-secocholesta-5,7,10(19),22-tetraen-25-yl)phosphonic acid diethyl ester], the “KF (competition factor)” value is 16.

In the case of `C=C1/C(=C\C=C2/CCC[C@]3(C)[C@@H]([C@H](C)/C=C/C(=O)CP(=O)(OCC)OCC)CC[C@@H]23)C[C@@H](O)C[C@@H]1O` [Compound 9, (5Z,7E,22E)-(1S,3R)-(1,3-Dihydroxy-24-oxo-24a-homo-9,10-secochola-5,7,10(19),22-tetraen-24a-yl)phosphonic acid diethyl ester], the “KF (competition factor)” value came out at 10.
